Where two headings read alike, the source gives them in different places.
Experiments:
[1] = biological target: T1, human serotonin 5-HT7 receptor subtype (Homo sapiens, UniProt P34969); assay: Binding affinity for 5-HT7 receptor ([3H]-5-CT displacement, membrane fraction of expressing cells)
T1 construct: expressed in transfected cells
Method: Binding Affinity for 5-HT7 Receptor
Cultured cells capable of expressing human serotonin 5-HT7 receptor subtype were collected in an assay buffer (50 mM Tris-HCl, pH 7.4, containing […], 0.2 mM EDTA, 0.001% pargyline and 0.1% ascorbic acid) and homogenized with a Potter type homogenizer. Then the membrane fraction was subjected to 20 minutes of centrifugation at 39,000 g and at 4° C. The thus obtained pellet was re-suspended in 1 ml (per cells per one culture dish of 10 cm in diameter) of the assay buffer and homogenized again. This test was carried out on 1 nM in final concentration of [^3H]-5-CT (carboxamide triptamine) and 1 to 1, 000 nM of the compounds of Examples 1 to 90 represented by the general formula (I). A 100 μl of the membrane fraction was added to the reaction tube, final assay volume was adjusted to 500 μl, and the reaction was carried out by incubating the medium at 37° C. for 15 minutes. The incubation was terminated by quickly filtering the reaction system on a GF/B filter which was subsequently washed with 6 ml of cold 50 mM Tris-HCl (pH 7.4). Radioactivity was measured using Packard liquid scintillation counter. Non-specific binding was determined by 10 μM metergoline, and the specific binding was calculated based on the difference. IC50 value of each compound was determined by non-linear least square regression analysis, and dissociation constant Ki was calculated from the value.

5-HT2 receptor = biological target: T2, 5-HT2 receptor (Rattus norvegicus, UniProt P14842); assay: Binding affinity for 5-HT2 receptor ([3H]ketanserin displacement, rat cerebral cortex P2 fraction); conditions: 1 nM [3H]ketanserin, Ki calculated from IC50
T2 construct: the thus obtained precipitate was used as P2 fraction; from tissue; host or cells: rat cerebral cortex, P2 membrane fraction
Method: Binding Affinity for 5-HT2 receptor
Rat cerebral cortex was homogenized in 10 volumes of 0.32 M sucrose solution and centrifuged for 10 minutes at 900×g, and the resulting supernatant fluid was again centrifuged for 20 minutes at 11,500×g. The thus obtained precipitate was re-suspended in […] Tris-HCl (pH 7.4) buffer and centrifuged for 20 minutes at 39,900×g, and the thus obtained precipitate was used as P2 fraction. The P2 fraction was incubated at 37° C. for 15 minutes in 50 mM Tris-HCl (pH 7.4) buffer containing 1 nM of [^3H] ketanserin and each of the compounds of the present invention and then filtered after the reaction using Whatman GF/B glass filter. The ^3H radioactivity on the filter was measured using a liquid scintillation counter. Non-specific binding was determined in the presence of 10 μM ketanserin, and the specific binding was calculated based on the difference. IC50 value of each compound was determined by non-linear least square regression analysis, and dissociation constant Ki was calculated from the value. The dissociation constant of 5-HT2 obtained by this test, dissociation constant of 5-HT7 obtained in Test Example 1 and their ratio are shown in the following table. As is evident from the results shown in the following table, compounds of the present invention show their affinity for 5-HT2 receptor too, but they bind more selectively to 5-HT7 receptor.

[2] = human 5-HT7 expressing cultured cells, 1 nM [3H]-5-CT, Ki calculated from IC50, read-out: Ki (nM) of 5-HT7

T2 sequence (P14842 whole entry): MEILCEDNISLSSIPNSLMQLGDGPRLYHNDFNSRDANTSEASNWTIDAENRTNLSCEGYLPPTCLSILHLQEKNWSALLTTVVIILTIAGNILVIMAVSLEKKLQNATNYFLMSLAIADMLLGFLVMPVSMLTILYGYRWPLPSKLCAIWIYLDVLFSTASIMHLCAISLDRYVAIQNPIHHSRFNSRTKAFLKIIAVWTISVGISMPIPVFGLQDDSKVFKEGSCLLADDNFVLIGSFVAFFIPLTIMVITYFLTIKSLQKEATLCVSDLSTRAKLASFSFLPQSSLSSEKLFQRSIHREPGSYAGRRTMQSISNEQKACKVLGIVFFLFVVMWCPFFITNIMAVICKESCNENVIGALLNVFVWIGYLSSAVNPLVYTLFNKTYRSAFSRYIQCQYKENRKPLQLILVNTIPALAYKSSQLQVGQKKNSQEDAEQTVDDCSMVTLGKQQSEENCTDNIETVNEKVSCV
T1 sequence (P34969 whole entry): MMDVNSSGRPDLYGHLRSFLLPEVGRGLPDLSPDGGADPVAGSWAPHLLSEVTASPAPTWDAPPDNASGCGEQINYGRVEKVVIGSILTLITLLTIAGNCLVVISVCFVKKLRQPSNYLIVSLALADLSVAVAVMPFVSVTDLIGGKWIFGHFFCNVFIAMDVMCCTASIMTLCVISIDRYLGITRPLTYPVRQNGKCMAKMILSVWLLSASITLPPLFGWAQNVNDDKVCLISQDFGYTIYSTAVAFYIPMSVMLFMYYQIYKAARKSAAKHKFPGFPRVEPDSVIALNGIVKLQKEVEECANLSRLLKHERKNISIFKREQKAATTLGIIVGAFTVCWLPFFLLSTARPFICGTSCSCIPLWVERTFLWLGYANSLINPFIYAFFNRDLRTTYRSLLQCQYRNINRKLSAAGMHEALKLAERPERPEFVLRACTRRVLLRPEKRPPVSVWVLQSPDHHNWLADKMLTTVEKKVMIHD

Row | SMILES | Ki [1, 2] [nM] | Ki (5-HT2 receptor) [nM] | 5-HT2/5-HT7 ([1]; ratio of dissociation constants Ki 5-HT2 / Ki 5-HT7) | Ki [1] [nM]
1 | COc1ccccc1N1CCN(CCCCC23CCCc4cccc(c42)NC3=O)CC1 (stereo not shown) [Compound 5, 2a-[4-{4-(2-Methoxyphenyl)piperazinyl}butyl]-2a,3,4,5-tetrahydrobenz[cd]indole-2(1H)-one] | 8.9 | 61 | – | –
2 | O=C1Nc2cccc3c2C1(CCCCN1CCN(c2ccccn2)CC1)CCC3 (stereo not shown) [Compound 87, 2a-[4-{4-(^2-Pyridyl)piperazinyl}butyl]-2a,3,4,5-tetrahydrobenz[cd]indole-2(1H)-one] | 11 | 120 | 11.0 | –
3 | COC1(c2ccccc2)CCN(CCCCC23CCCc4cccc(c42)NC3=O)CC1 (stereo not shown) [Compound 56, 2a-[4-(4-Methoxy-4-phenyl-piperidyl)butyl]-2a,3,4,5-tetrahydrobenz[cd]indole-2(1H)-one] | – | 414 | – | 27
